Columns and labels:
Assay type in all cases: functional
Escherichia coli [1] = test: Antimicrobial activity against extended-spectrum beta-lactamase-positive Escherichia coli obtained from patient with complicated intra-abdominal infection assessed as percent susceptible isolates by agar dilution method in presence of beta-lactamase inhibitor Sulbactam
Acinetobacter sp. [2] = test: Antimicrobial activity against Acinetobacter sp. assessed as percent susceptible isolates by agar dilution method in presence of beta-lactamase inhibitor Sulbactam
Escherichia coli [3] = test: Antimicrobial activity against extended-Spectrum beta-lactamase-negative Escherichia coli obtained from patient with complicated intra-abdominal infection assessed as percent susceptible isolates by agar dilution method in presence of beta-lactamase inhibitor Sulbactam
Pseudomonas fluorescens [4] = test: Antimicrobial activity against Pseudomonas fluorescens assessed as percent susceptible isolates by agar dilution method in presence of beta-lactamase inhibitor Sulbactam
Escherichia coli [5] = test: Antimicrobial activity against Escherichia coli obtained from patient with complicated intra-abdominal infection assessed as percent susceptible isolates by agar dilution method in presence of beta-lactamase inhibitor Sulbactam
Proteus mirabilis [6] = test: Antimicrobial activity against extended-spectrum beta-lactamase-positive Proteus mirabilis assessed as percent susceptible isolates by agar dilution method in presence of beta-lactamase inhibitor Sulbactam
[7] = tested on: Stenotrophomonas maltophilia; test: Antimicrobial activity against Stenotrophomonas maltophilia assessed as percent susceptible isolates by agar dilution method in presence of beta-lactamase inhibitor Sulbactam
Klebsiella pneumoniae [8] = test: Antimicrobial activity against extended-spectrum beta-lactamase-negative Klebsiella pneumoniae assessed as percent susceptible isolates by agar dilution method in presence of beta-lactamase inhibitor Sulbactam
Klebsiella pneumoniae [9] = test: Antimicrobial activity against Klebsiella pneumoniae assessed as percent susceptible isolates by agar dilution method in presence of beta-lactamase inhibitor Sulbactam
Klebsiella pneumoniae [10] = test: Antimicrobial activity against extended-spectrum beta-lactamase-positive Klebsiella pneumoniae assessed as percent susceptible isolates by agar dilution method in presence of beta-lactamase inhibitor Sulbactam
Klebsiella aerogenes [11] = test: Antimicrobial activity against Enterobacter aerogenes obtained from patient with complicated intra-abdominal infection assessed as percent susceptible isolates by agar dilution method in presence of beta-lactamase inhibitor Sulbactam
Serratia marcescens [12] = test: Antimicrobial activity against Serratia marcescens assessed as percent susceptible isolates by agar dilution method in presence of beta-lactamase inhibitor Sulbactam
Enterobacter cloacae [13] = test: Antimicrobial activity against Enterobacter cloacae obtained from patient with complicated intra-abdominal infection assessed as percent susceptible isolates by agar dilution method in presence of beta-lactamase inhibitor Sulbactam
Citrobacter freundii [14] = test: Antimicrobial activity against Citrobacter freundii obtained from patient with complicated intra-abdominal infection assessed as percent susceptible isolates by agar dilution method in presence of beta-lactamase inhibitor Sulbactam
Pasteurella sp. [15] = test: Antimicrobial activity against Pasteurella sp. assessed as percent susceptible isolates by agar dilution method in presence of beta-lactamase inhibitor Sulbactam
Klebsiella oxytoca [16] = test: Antimicrobial activity against extended-spectrum beta-lactamase-positive Klebsiella oxytoca assessed as percent susceptible isolates by agar dilution method in presence of beta-lactamase inhibitor Sulbactam
Proteus mirabilis [17] = test: Antimicrobial activity against extended-spectrum beta-lactamase-positive Proteus mirabilis assessed as percent susceptible isolates by agar dilution method
[18] = tested on: Stenotrophomonas maltophilia; test: Antimicrobial activity against Stenotrophomonas maltophilia assessed as percent susceptible isolates by agar dilution method
Acinetobacter sp. [19] = test: Antimicrobial activity against Acinetobacter sp. assessed as percent susceptible isolates by agar dilution method
Citrobacter freundii [20] = test: Antimicrobial activity against Citrobacter freundii obtained from patient with complicated intra-abdominal infection assessed as percent susceptible isolates by agar dilution method
Klebsiella pneumoniae [21] = test: Antimicrobial activity against extended-spectrum beta-lactamase-negative Klebsiella pneumoniae assessed as percent susceptible isolates by agar dilution method
Pasteurella sp. [22] = test: Antimicrobial activity against Pasteurella sp. assessed as percent susceptible isolates by agar dilution method
Klebsiella pneumoniae [23] = test: Antimicrobial activity against Klebsiella pneumoniae assessed as percent susceptible isolates by agar dilution method
Escherichia coli [24] = test: Antimicrobial activity against extended-spectrum beta-lactamase-positive Escherichia coli obtained from patient with complicated intra-abdominal infection assessed as percent susceptible isolates by agar dilution method
Escherichia coli [25] = test: Antimicrobial activity against extended-spectrum beta-lactamase-negative Escherichia coli obtained from patient with complicated intra-abdominal infection assessed as percent susceptible isolates by agar dilution method
Pseudomonas aeruginosa [26] = test: Antimicrobial activity against Pseudomonas aeruginosa assessed as percent susceptible isolates by agar dilution method
Enterobacter cloacae [27] = test: Antimicrobial activity against Enterobacter cloacae obtained from patient with complicated intra-abdominal infection assessed as percent susceptible isolates by agar dilution method
Klebsiella pneumoniae [28] = test: Antimicrobial activity against extended-spectrum beta-lactamase-positive Klebsiella pneumoniae assessed as percent susceptible isolates by agar dilution method
Klebsiella aerogenes [29] = test: Antimicrobial activity against Enterobacter aerogenes obtained from patient with complicated intra-abdominal infection assessed as percent susceptible isolates by agar dilution method
Klebsiella oxytoca [30] = test: Antimicrobial activity against extended-spectrum beta-lactamase-positive Klebsiella oxytoca assessed as percent susceptible isolates by agar dilution method
Enterobacteriaceae = test: Antimicrobial activity against Enterobacteriaceae Extended-Spectrum beta-lactamase positive assessed as percent susceptible isolates by agar dilution method
Escherichia coli [31] = test: Antimicrobial activity against Escherichia coli obtained from patient with complicated intra-abdominal infection assessed as percent susceptible isolates by agar dilution method
Pseudomonas fluorescens [32] = test: Antimicrobial activity against Pseudomonas fluorescens assessed as percent susceptible isolates by agar dilution method
Serratia marcescens [33] = test: Antimicrobial activity against Serratia marcescens assessed as percent susceptible isolates by agar dilution method
Pseudomonas fluorescens [34] = test: Antimicrobial activity against Pseudomonas fluorescens assessed as percent susceptible isolates by agar dilution method in presence of beta-lactamase inhibitor Tazobactam
Pseudomonas aeruginosa [35] = test: Antimicrobial activity against Pseudomonas aeruginosa assessed as percent susceptible isolates by agar dilution method in presence of beta-lactamase inhibitor Tazobactam
Klebsiella aerogenes [36] = test: Antimicrobial activity against Enterobacter aerogenes obtained from patient with complicated intra-abdominal infection assessed as percent susceptible isolates by agar dilution method in presence of beta-lactamase inhibitor Tazobactam
Enterobacter cloacae [37] = test: Antimicrobial activity against Enterobacter cloacae obtained from patient with complicated intra-abdominal infection assessed as percent susceptible isolates by agar dilution method in presence of beta-lactamase inhibitor Tazobactam
Escherichia coli [38] = test: Antimicrobial activity against extended-spectrum beta-lactamase-negative Escherichia coli obtained from patient with complicated intra-abdominal infection assessed as percent susceptible isolates by agar dilution method in presence of beta-lactamase inhibitor Tazobactam
Klebsiella pneumoniae [39] = test: Antimicrobial activity against extended-spectrum beta-lactamase-negative Klebsiella pneumoniae assessed as percent susceptible isolates by agar dilution method in presence of beta-lactamase inhibitor Tazobactam
Pasteurella sp. [40] = test: Antimicrobial activity against Pasteurella sp. assessed as percent susceptible isolates by agar dilution method in presence of beta-lactamase inhibitor Tazobactam
Proteus mirabilis [41] = test: Antimicrobial activity against extended-spectrum beta-lactamase-positive Proteus mirabilis assessed as percent susceptible isolates by agar dilution method in presence of beta-lactamase inhibitor Tazobactam
[42] = tested on: Stenotrophomonas maltophilia; test: Antimicrobial activity against Stenotrophomonas maltophilia assessed as percent susceptible isolates by agar dilution method in presence of beta-lactamase inhibitor Tazobactam
Klebsiella pneumoniae [43] = test: Antimicrobial activity against Klebsiella pneumoniae assessed as percent susceptible isolates by agar dilution method in presence of beta-lactamase inhibitor Tazobactam
Escherichia coli [44] = test: Antimicrobial activity against extended-spectrum beta-lactamase-positive Escherichia coli obtained from patient with complicated intra-abdominal infection assessed as percent susceptible isolates by agar dilution method in presence of beta-lactamase inhibitor Tazobactam
Escherichia coli [45] = test: Antimicrobial activity against Escherichia coli obtained from patient with complicated intra-abdominal infection assessed as percent susceptible isolates by agar dilution method in presence of beta-lactamase inhibitor Tazobactam
Serratia marcescens [46] = test: Antimicrobial activity against Serratia marcescens assessed as percent susceptible isolates by agar dilution method in presence of beta-lactamase inhibitor Tazobactam
Klebsiella oxytoca [47] = test: Antimicrobial activity against extended-spectrum beta-lactamase-positive Klebsiella oxytoca assessed as percent susceptible isolates be agar dilution method in presence of beta-lactamase inhibitor Tazobactam
Acinetobacter sp. [48] = test: Antimicrobial activity against Acinetobacter sp. assessed as percent susceptible isolates by agar dilution method in presence of beta-lactamase inhibitor Tazobactam
Citrobacter freundii [49] = test: Antimicrobial activity against Citrobacter freundii obtained from patient with complicated intra-abdominal infection assessed as percent susceptible isolates by agar dilution method in presence of beta-lactamase inhibitor Tazobactam
Klebsiella pneumoniae [50] = test: Antimicrobial activity against extended-spectrum beta-lactamase-positive Klebsiella pneumoniae assessed as percent susceptible isolates by agar dilution method in presence of beta-lactamase inhibitor Tazobactam

What does the source list for `CC1(C)S[C@@H]2[C@H](NC(=O)[C@H](N)c3ccccc3)C(=O)N2[C@H]1C(=O)O` [AMPICILLIN]?
Activity (Escherichia coli [1]): 24%; Activity (Acinetobacter sp. [2]): 46%; Activity (Escherichia coli [3]): 64%; Activity (Pseudomonas fluorescens [4]): 46%; Activity (Escherichia coli [5]): 62%; Activity (Proteus mirabilis [6]): 97%; Activity [7]: 46%; Activity (Klebsiella pneumoniae [8]): 83%; Activity (Klebsiella pneumoniae [9]): 69%; Activity (Klebsiella pneumoniae [10]): 3%; Activity (Klebsiella aerogenes [11]): 21%; Activity (Serratia marcescens [12]): 13%; Activity (Enterobacter cloacae [13]): 17%; Activity (Citrobacter freundii [14]): 61%; Activity (Pasteurella sp. [15]): 46%; Activity (Klebsiella oxytoca [16]): 57%

For `CO/N=C(\C(=O)N[C@@H]1C(=O)N2C(C(=O)O)=C(COC(C)=O)CS[C@H]12)c1csc(N)n1` [CEFOTAXIME], which Activity (Proteus mirabilis [17]) is on record?
The Activity was 100%.

And the Activity [18]?
Its Activity is 8%.

And the Activity (Acinetobacter sp. [19])?
The Activity was 8%.

What about the Activity (Citrobacter freundii [20]) of the same molecule?
The Activity was 67%.

And the Activity (Klebsiella pneumoniae [21])?
Its Activity is 99%.

And the Activity (Pasteurella sp. [22])?
The Activity was 8%.

What about the Activity (Klebsiella pneumoniae [23]) of the same molecule?
Its Activity is 85%.

What about the Activity (Escherichia coli [24]) of the same molecule?
The Activity was 38%.

And the Activity (Escherichia coli [25])?
Its Activity is 99%.

And the Activity (Pseudomonas aeruginosa [26])?
Its Activity is 9%.

What about the Activity (Enterobacter cloacae [27]) of the same molecule?
Its Activity is 62%.

What about the Activity (Klebsiella pneumoniae [28]) of the same molecule?
Its Activity is 19%.

And the Activity (Klebsiella aerogenes [29])?
Its Activity is 79%.

What about the Activity (Klebsiella oxytoca [30]) of the same molecule?
The Activity was 96%.

What about the Activity (Enterobacteriaceae) of the same molecule?
The Activity was 6%.

What about the Activity (Escherichia coli [31]) of the same molecule?
The Activity was 96%.

And the Activity (Pseudomonas fluorescens [32])?
Its Activity is 8%.

What about the Activity (Serratia marcescens [33]) of the same molecule?
The Activity was 100%.

Which Activity (Proteus mirabilis [17]) does the source give for `CC(C)(O/N=C(\C(=O)N[C@@H]1C(=O)N2C(C(=O)[O-])=C(C[n+]3ccccc3)CS[C@H]12)c1csc(N)n1)C(=O)O` [CEFTAZIDIME] here?
Its Activity is 94%.

What about the Activity [18] of the same molecule?
The Activity was 32%.

What about the Activity (Acinetobacter sp. [19]) of the same molecule?
The Activity was 32%.

What about the Activity (Citrobacter freundii [20]) of the same molecule?
Its Activity is 72%.

What about the Activity (Klebsiella pneumoniae [21]) of the same molecule?
Its Activity is 100%.

And the Activity (Pasteurella sp. [22])?
The Activity was 32%.

What about the Activity (Klebsiella pneumoniae [23]) of the same molecule?
The Activity was 86%.

And the Activity (Escherichia coli [24])?
The Activity was 52%.

And the Activity (Escherichia coli [25])?
The Activity was 98%.

What about the Activity (Pseudomonas aeruginosa [26]) of the same molecule?
The Activity was 76%.

What about the Activity (Enterobacter cloacae [27]) of the same molecule?
Its Activity is 66%.

What about the Activity (Klebsiella pneumoniae [28]) of the same molecule?
Its Activity is 19%.

What about the Activity (Klebsiella aerogenes [29]) of the same molecule?
Its Activity is 63%.

What about the Activity (Klebsiella oxytoca [30]) of the same molecule?
Its Activity is 96%.

What about the Activity (Enterobacteriaceae) of the same molecule?
Its Activity is 31%.

What about the Activity (Escherichia coli [31]) of the same molecule?
The Activity was 96%.

And the Activity (Pseudomonas fluorescens [32])?
Its Activity is 32%.

What about the Activity (Serratia marcescens [33]) of the same molecule?
Its Activity is 100%.

Which results are given for `CO/N=C(\C(=O)N[C@@H]1C(=O)N2C(C(=O)O)=C(CSc3nc(=O)c(O)nn3C)CS[C@H]12)c1csc(N)n1` [CEFTRIAXONE]?
Activity (Proteus mirabilis [17]): 100%; Activity [18]: 15%; Activity (Acinetobacter sp. [19]): 15%; Activity (Citrobacter freundii [20]): 67%; Activity (Klebsiella pneumoniae [21]): 99%; Activity (Pasteurella sp. [22]): 15%; Activity (Klebsiella pneumoniae [23]): 85%; Activity (Escherichia coli [24]): 38%; Activity (Escherichia coli [25]): 98%; Activity (Pseudomonas aeruginosa [26]): 17%; Activity (Enterobacter cloacae [27]): 64%; Activity (Klebsiella pneumoniae [28]): 19%; Activity (Klebsiella aerogenes [29]): 79%; Activity (Klebsiella oxytoca [30]): 89%; Activity (Enterobacteriaceae): 7%; Activity (Escherichia coli [31]): 96%; Activity (Pseudomonas fluorescens [32]): 15%; Activity (Serratia marcescens [33]): 100%

With `CCN1CCN(C(=O)N[C@@H](C(=O)N[C@@H]2C(=O)N3[C@@H]2SC(C)(C)[C@@H]3C(=O)O)c2ccccc2)C(=O)C1=O` [PIPERACILLIN] as the molecule, how does the Activity (Pseudomonas fluorescens [34]) read?
Its Activity is 23%.

And the Activity (Pseudomonas aeruginosa [35])?
Its Activity is 83%.

And the Activity (Klebsiella aerogenes [36])?
Its Activity is 88%.

What about the Activity (Enterobacter cloacae [37]) of the same molecule?
The Activity was 69%.

What about the Activity (Escherichia coli [38]) of the same molecule?
Its Activity is 98%.

What about the Activity (Klebsiella pneumoniae [39]) of the same molecule?
Its Activity is 97%.

What about the Activity (Pasteurella sp. [40]) of the same molecule?
The Activity was 23%.

What about the Activity (Proteus mirabilis [41]) of the same molecule?
The Activity was 100%.

What about the Activity [42] of the same molecule?
Its Activity is 23%.

And the Activity (Klebsiella pneumoniae [43])?
Its Activity is 85%.

And the Activity (Escherichia coli [44])?
Its Activity is 62%.

What about the Activity (Escherichia coli [45]) of the same molecule?
Its Activity is 96%.

And the Activity (Serratia marcescens [46])?
Its Activity is 100%.

What about the Activity (Klebsiella oxytoca [47]) of the same molecule?
Its Activity is 89%.

What about the Activity (Acinetobacter sp. [48]) of the same molecule?
The Activity was 23%.

And the Activity (Citrobacter freundii [49])?
Its Activity is 72%.

And the Activity (Klebsiella pneumoniae [50])?
Its Activity is 28%.

— ChEMBL document CHEMBL1629692, “Susceptibility of gram-negative pathogens isolated from patients with complicated intra-abdominal infections in the United States, 2007-2008: results of the Study for Monitoring Antimicrobial Resistance Trends (SMART)” (2010)
